Patent US7745604B2, “Upstream control elements of the proopiomelanocortin gene and their use” (Oregon Health & Science University, priority 2001, dated 2010)
“And” between values parts separate entries of the source, which are not always exact repeats. Equal entries are not always repeated. “Also recorded” adds a separate entry of the source. Where two headings read alike, the source gives them in different places. Non-standard residues stand in square brackets, D forms with d. No end group written: not given here.

Tests used:
POMC neurons [1] = experiment: Whole cell recordings of membrane potential of EGFP-labeled POMC neurons in ARC slices; type: cell-based, mouse
POMC neurons [2] = experiment: Action potential frequency (firing rate) of POMC neurons, whole cell or loose cell-attached recordings; type: cell-based, mouse; conditions: for increase in frequency of action potentials (firing rate) in POMC neurons: fenfluramine 20 μM, loose-cell-attached, n=3, reversed with washout
[3] = test system: GABAergic IPSCs in POMC neurons; experiment: GABAergic IPSCs recorded in POMC neurons of ARC slices; type: cell-based, mouse
hypothalamic explants = conditions: Y2A; cited from earlier work
[4] = test system: non-POMC neurons in the arcuate nucleus; experiment: Membrane potential of non-fluorescent (non-POMC) neurons in the ARC; type: cell-based, mouse
[5] = test system: c-fos expression in the arcuate nucleus; experiment: c-fos expression in the lateral arcuate after IP injection, rat; type: in vivo; conditions: single IP injection
[6] = test system: c-fos expression in the arcuate nucleus; experiment: c-fos expression in arcuate nucleus of Pomc-EGFP mice after IP injection; type: in vivo, mouse; conditions: IP 5 μg/100 g, 2 hours
Source text: Data were obtained from 5 mice in each group. For the Pomc-EGFP mice 5 anatomically matched arcuate nucleus sections (Franklin et al., The Mouse Brain in Stereotaxic Coordinates (Academic Press, San Diego, 1997) were counted from each animal, and images acquired using a Leica TSC confocal microscope (Grove et al., Neuroscience 100:731-40, 2000).

## CCNC(C)Cc1cccc(C(F)(F)F)c1 (stereo not drawn) [Fenfluramine]
POMC neurons [1]; fenfluramine, whole cell, dose dependent, n=4-8 per dose
  effect on membrane potential of POMC neurons: depolarized POMC neurons
POMC neurons [2]
  increase in frequency of action potentials (firing rate) in POMC neurons: two fold increase
POMC neurons [2]; listed as d-FEN
  increase in frequency of action potentials (firing rate) in POMC neurons: doubling

## Clc1cncc(N2CCNCC2)n1 [MK 212, 6-Chloro-2-(1-piperazinyl)pyrazine]
POMC neurons [1]
  effect on resting membrane potential of POMC neurons: depolarized POMC neurons

## NC1=N[C@H](O)[C@H]2[C@H]3O[C@]4(O)O[C@@H]([C@@H](O)[C@@]2(N1)[C@@H]4O)[C@]3(O)CO [TTX, tetrodotoxin]
[3]
  effect on large amplitude IPSCs: abolished large IPSCs

## Clc1cccc(N2CCNCC2)c1 [mCPP, 1-(3-Chlorophenyl)piperazine]
POMC neurons [1]
  effect on resting membrane potential of POMC neurons: depolarized POMC neurons

## NCCc1c[nH]c2ccc(O)cc12 [serotonin]
POMC neurons [1]; serotonin receptor agonists bath-applied four minutes, whole cell, n=4-8 per dose
  effect on resting membrane potential of POMC neurons: increased the resting membrane potential (depolarized)

## D-Trp^8-γMSH (YVMGHFR[dW]DRFG)
[3]; D-Trp8-γMSH 7 nM
  POMC neurons with increased IPSC frequency of cells tested: 3 of 4
[3]; D-Trp8-γMSH 7 nM, FIG. 4b
  effect on frequency of GABAergic IPSCs in POMC neurons: increases the frequency of GABAergic IPSCs
POMC neurons [1]; D-Trp8-γMSH 7 nM
  POMC neurons hyperpolarized of cells tested: 9 of 15
POMC neurons [1]; D-Trp8-γMSH, FIG. 4c
  effect on membrane potential of POMC neurons: hyperpolarizes POMC neurons
POMC neurons [2]; D-Trp8-γMSH 7 nM
  effect on frequency of action potentials: decreased the frequency of action potentials

## Ghrelin: known appetite stimulant; agent known to increase feeding, caloric intake, and appetite (GSSFLSPEHQRVQQRKESKKPPAKLQPR; ends and bridges not checked; UniProt Q9UBU3 24-51, looked up)
[3]; Ghrelin 50 nM, whole cell
  effect on frequency of IPSCs in POMC neurons: increase in the frequency of IPSCs; also recorded: increases the frequency of spontaneous synaptic GABA release onto POMC neurons
POMC neurons [1]; Ghrelin 50 nM, three minutes, whole cell, p<0.03
  mean hyperpolarization of POMC neurons: 1.47±0.7 mV
POMC neurons [1]; Ghrelin, whole cell, FIG. 12b, 34 experiments
  effect on membrane potential of POMC neurons: mildly hyperpolarizes POMC neurons
POMC neurons [2]; Ghrelin 50 nM, loose-cell-attached mode, reverses with washout
  decrease of action potential firing rate of POMC neurons: 50%

## N-acetyl (Leu^28, Leu^31) NPY (24-36) [Y2A]
Hypothalamic explants
  NPY release from hypothalamic explants: significantly decreased NPY release
  α-MSH release from hypothalamic explants: increase in α-MSH release
[3]; Y2A, n=8, P<0.004
  reduction of IPSC frequency: 44.4±9.3%

## NPY
[3]
  cells in which IPSCs were still inhibited in the presence of tetrodotoxin (TTX): 6 of 6
[3]; NPY 100 nM
  decrease of frequency of GABAergic IPSCs: 55%
  time to decrease of IPSC frequency: ≤ 3 min
[3]; NPY, FIG. 4a
  effect on frequency of mini IPSCs in POMC neurons: decreases the frequency of mini IPSCs
POMC neurons [1]; NPY, n=3, all POMC neurons tested
  average hyperpolarization of POMC neurons: 9±6 mV

## PYY3-36
[4]; PYY3-36 25 nM, n=5, P<0.004
  hyperpolarization of unidentified, presumably NPY-containing, non-POMC neurons: 5.2±1.16 mV
[5]
  increase in number of cells positive for c-fos vs saline: 2 fold
POMC neurons [1]; PYY3-36, whole cell
  POMC neurons depolarized of cells tested: 19 of the 22
[6]
  increase in number of arcuate cells positive for c-fos vs saline: 1.8 fold
  increase in proportion of POMC neurons that express c-fos vs saline: 2.6 fold
[6]; n=5, P<0.05
  number of arcuate cells positive for c-fos: 250±40
POMC neurons [2]; PYY3-36 10 nM, loose cell-attached, reversible, n=8
  increase in frequency of action potentials: 5 fold
POMC neurons [2]; PYY3-36 10 nM, whole-cell, n=22, P<0.05
  increase in frequency of action potentials over control: 93%

## leptin: adipostatic hormone
[4]; leptin, 13 cells tested
  adjacent non-fluorescent cells with no effect: 5 and 5 of 13
  non-POMC ARC neurons depolarized: 3
  non-fluorescent ARC neurons hyperpolarized: 5
[3]
  cells in which IPSCs were still inhibited in the presence of tetrodotoxin (TTX): 3 of 5
[3]; leptin 100 nM
  POMC cells with decreased IPSC frequency of cells tested: 5 out of 15
[3]; leptin 100 nM, FIG. 3d, 5 cells
  effect on frequency of IPSCs in POMC cells: decreased the frequency of IPSCs
[3]; leptin 100 nM, in responding cells
  decrease of frequency of GABAergic IPSCs: 25%
POMC neurons [1]; 100 nM leptin, n=45
  mean±s.e.m. depolarization: 9.7±1.2 mV
POMC neurons [1]; leptin 100 nM, slow voltage ramps
  reversal potential of small inward current causing depolarization: approximately −20 mV
POMC neurons [1]; leptin 0.1-100 nM
  POMC cells depolarized of cells tested: 72 of 77
  depolarization of POMC cells: 3-30 mV
  time to depolarization after addition: 1 to 10 min and 2 to 10 min
POMC neurons [2]; leptin, FIG. 3a, 77 POMC neurons
  effect on frequency of action potentials: increases the frequency of action potentials

## met-enkephalin
POMC neurons [1]
  effect on membrane potential of POMC neurons: hyperpolarizes POMC neurons
POMC neurons [2]
  effect on spontaneous action potentials of POMC cells: inhibits all action potentials; also recorded: prevented spontaneous action potential generation

## picrotoxin
[3]
  effect on IPSCs: blocked all IPSCs
